# Patent publication US20130303533A1, “AZOLOPYRIDINE AND AZOLOPYRIMIDINE COMPOUNDS AND METHODS OF USE THEREOF” (AMBIT BIOSCIENCES CORPORATION, priority 2010, published 2013)
# Tests used:
# [1] = tested on: GM-CSFR/JAK2/STAT5 pathway; assay: CSTF-1 cell-based reporter assay; conditions: Homo sapiens; csTF-1 cells, GM-CSF at 2 ng/mL, 4 hours, beta-lactamase reporter; read-out: Cell Assay: CS TF-1 reporter assay IC50
# Method: CSTF-1 Cell-Based Reporter Assay
# CSTF-1 cells are derived from the human erythroleukemia cell line that is growth dependent on GM-CSF and has an intact GM-CSFR/JAK2/STAT5 pathway. The cell line contains stably integrated beta-lactamase reporter gene under the control of the […] (irf 1) response element recognized by the activated transcription factor STAT5. csTF-1 cells (Invitrogen K1219) were washed with assay media (97% OPTIMEM/0.5% dialyzed FBS/0.1 mM NEAA/1 mM Na pyr/P/S) and seeded in the same media at 5×10^5 cell/mL in T150 flask. After 16 hour incubation, cells were seeded at 2×10^5 cell/well in 50 μl volume, into Costar, clear bottom, 96-well assay plates. Serial dilutions of compounds were added to the plates with final DMSO concentration at 0.5% and GM-CSF at 2 ng/mL and the plates were then incubated at 30° C. and 5% CO2 for 4 hours. The plates were brought to room temperature before adding Substrate Mixture according to manufacturer's protocol (Invitrogen, Catalog #K1085). The assay plates containing the substrate mixture were incubated in the dark at room temperature for 2 hours. Blue and green fluorescence was measured with excitation at 409 nm and emission at 460 nm (for blue) and excitation at 409 nm and emission at 530 nm (for green) using Spectra Max Gemini EM.
# JAK2 = molecular target: T1, JAK2 (Homo sapiens, UniProt O60674); assay: Competition binding assay to determine binding constants (Kd), JAK2
# T1 construct: made in house; host or cells: T7 phage display or HEK-293 cells (alternatives)
# T1 sequence (O60674 whole entry): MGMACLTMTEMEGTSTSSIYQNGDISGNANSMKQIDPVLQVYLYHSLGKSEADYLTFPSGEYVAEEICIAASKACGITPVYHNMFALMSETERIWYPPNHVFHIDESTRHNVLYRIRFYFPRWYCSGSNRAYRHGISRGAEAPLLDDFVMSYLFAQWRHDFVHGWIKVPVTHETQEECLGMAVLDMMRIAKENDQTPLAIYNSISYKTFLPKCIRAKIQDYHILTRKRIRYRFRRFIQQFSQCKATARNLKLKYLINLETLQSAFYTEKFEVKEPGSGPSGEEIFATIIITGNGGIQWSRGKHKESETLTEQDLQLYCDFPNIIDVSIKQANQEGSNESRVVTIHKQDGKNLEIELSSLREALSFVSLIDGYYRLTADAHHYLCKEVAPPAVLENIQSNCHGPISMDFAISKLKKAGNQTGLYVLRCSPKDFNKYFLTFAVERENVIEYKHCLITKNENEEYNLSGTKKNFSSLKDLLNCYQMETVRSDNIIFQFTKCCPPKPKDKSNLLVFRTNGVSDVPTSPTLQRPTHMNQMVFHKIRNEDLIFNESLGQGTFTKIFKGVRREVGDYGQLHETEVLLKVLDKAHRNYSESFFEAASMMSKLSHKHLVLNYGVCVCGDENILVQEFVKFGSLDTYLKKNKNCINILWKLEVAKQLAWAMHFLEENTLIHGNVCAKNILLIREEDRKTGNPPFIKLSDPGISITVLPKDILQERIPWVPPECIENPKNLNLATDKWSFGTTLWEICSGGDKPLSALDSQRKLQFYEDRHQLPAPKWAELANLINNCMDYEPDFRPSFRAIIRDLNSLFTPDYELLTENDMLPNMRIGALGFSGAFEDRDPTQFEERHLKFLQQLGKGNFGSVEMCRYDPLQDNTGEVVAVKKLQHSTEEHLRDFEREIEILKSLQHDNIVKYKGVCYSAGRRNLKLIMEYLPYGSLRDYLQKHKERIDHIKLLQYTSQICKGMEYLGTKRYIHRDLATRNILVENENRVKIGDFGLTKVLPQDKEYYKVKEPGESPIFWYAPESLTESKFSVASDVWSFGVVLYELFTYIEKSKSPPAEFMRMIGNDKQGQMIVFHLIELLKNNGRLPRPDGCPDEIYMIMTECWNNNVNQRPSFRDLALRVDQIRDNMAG
# Description: (§1) Competition Binding Assay to Determine Binding Constants (Kd) of the Compounds Against JAK Kinases
# (§2) Competition binding assays used herein were developed, validated and performed as described in Fabian et al., Nature Biotechnology 2005, 23, 329-336. Kinases were produced as fusions to T7 phage (See, Fabian et al. or WO04/015142) or alternatively, the kinases were expressed in HEK-293 cells and subsequently tagged with DNA for PCR detection (See, WO08/005,310). For the binding assays, streptavidin-coated magnetic beads were treated with biotinylated affinity ligands for 30 min at rt to generate affinity resins. The liganded beads were blocked with excess biotin and washed with blocking buffer (SeaBlock (Pierce), 1% BSA, 0.05% Tween 20, 1 mM DTT) to remove unbound ligand and to reduce non-specific binding. Binding reactions were assembled by combining kinase, liganded affinity beads, and test compounds in 1× binding buffer (20% SeaBlock, 0.17×PBS, 0.05% Tween 20, 6 mM DTT). Test compounds were prepared as 100× stocks in DMSO and rapidly diluted into the aqueous environment. DMSO was added to control assays lacking a test compound. Primary screen interactions were performed in polypropylene 384-well plates in a final volume of 34 μL, while Kd determinations were performed in polystyrene 96-well plates in a final volume of 135 μL. The assay plates were incubated at room temperature with shaking for 1 hour, long enough for binding reactions to reach equilibrium, and the affinity beads were washed extensively with wash buffer (1×PBS, 0.05% Tween 20) to remove unbound protein. The beads were then resuspended in elution buffer (1×PBS, 0.05% Tween 20, 2 μM non-biotinylated affinity ligand) and incubated at room temperature with shaking for 30 min. The kinase concentration in the eluates was measured by quantitative PCR. Each kinase was tested individually against each compound. Kds were determined using eleven serial threefold dilutions. A selectivity score, which is a quantitative measure of selectivity of a compound against a panel of enzymes, may be calculated for a compound by dividing the number of enzymes for which a compound meets a set criteria, (for example, a binding constant of 100 nM or less), by the total number of enzymes tested.
# JAK3 = molecular target: T2, JAK3 (Homo sapiens, UniProt P52333); assay: Competition binding assay to determine binding constants (Kd), JAK3
# T2 construct: made in house; host or cells: T7 phage display or HEK-293 cells (alternatives)
# T2 sequence (P52333 1-1124): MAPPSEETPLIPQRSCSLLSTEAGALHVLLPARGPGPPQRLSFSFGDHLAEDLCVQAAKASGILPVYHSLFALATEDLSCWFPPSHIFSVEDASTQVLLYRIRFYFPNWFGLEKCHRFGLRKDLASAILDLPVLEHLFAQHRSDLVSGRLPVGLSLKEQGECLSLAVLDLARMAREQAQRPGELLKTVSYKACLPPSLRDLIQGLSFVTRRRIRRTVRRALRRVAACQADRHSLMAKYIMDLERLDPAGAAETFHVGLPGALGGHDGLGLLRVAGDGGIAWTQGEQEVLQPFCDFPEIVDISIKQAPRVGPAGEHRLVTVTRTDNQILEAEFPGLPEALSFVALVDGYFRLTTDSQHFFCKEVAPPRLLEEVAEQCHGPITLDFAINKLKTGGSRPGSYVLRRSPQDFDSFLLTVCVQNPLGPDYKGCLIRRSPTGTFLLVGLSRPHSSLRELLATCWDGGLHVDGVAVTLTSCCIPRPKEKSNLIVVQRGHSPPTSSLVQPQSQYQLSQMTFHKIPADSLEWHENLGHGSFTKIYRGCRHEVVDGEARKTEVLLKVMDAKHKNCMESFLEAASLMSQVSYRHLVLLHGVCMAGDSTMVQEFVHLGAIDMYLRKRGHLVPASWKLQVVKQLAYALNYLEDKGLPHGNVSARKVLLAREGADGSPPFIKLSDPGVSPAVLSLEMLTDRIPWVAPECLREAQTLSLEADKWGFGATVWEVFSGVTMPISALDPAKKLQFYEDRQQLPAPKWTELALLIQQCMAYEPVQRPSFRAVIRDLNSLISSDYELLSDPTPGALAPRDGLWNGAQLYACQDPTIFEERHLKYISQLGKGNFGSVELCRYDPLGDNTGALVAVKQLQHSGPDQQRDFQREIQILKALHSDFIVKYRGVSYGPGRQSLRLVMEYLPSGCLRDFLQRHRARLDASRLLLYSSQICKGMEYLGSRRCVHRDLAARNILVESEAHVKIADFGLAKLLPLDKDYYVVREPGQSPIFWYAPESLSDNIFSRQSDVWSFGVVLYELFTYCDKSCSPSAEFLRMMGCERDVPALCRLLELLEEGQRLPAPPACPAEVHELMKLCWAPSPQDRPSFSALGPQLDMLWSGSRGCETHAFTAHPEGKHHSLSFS
# Description: as §1, §2
# TYK2 = molecular target: T3, TYK2 (Homo sapiens, UniProt P29597); assay: Competition binding assay to determine binding constants (Kd), TYK2
# T3 construct: made in house; host or cells: T7 phage display or HEK-293 cells (alternatives)
# T3 sequence (P29597 whole entry): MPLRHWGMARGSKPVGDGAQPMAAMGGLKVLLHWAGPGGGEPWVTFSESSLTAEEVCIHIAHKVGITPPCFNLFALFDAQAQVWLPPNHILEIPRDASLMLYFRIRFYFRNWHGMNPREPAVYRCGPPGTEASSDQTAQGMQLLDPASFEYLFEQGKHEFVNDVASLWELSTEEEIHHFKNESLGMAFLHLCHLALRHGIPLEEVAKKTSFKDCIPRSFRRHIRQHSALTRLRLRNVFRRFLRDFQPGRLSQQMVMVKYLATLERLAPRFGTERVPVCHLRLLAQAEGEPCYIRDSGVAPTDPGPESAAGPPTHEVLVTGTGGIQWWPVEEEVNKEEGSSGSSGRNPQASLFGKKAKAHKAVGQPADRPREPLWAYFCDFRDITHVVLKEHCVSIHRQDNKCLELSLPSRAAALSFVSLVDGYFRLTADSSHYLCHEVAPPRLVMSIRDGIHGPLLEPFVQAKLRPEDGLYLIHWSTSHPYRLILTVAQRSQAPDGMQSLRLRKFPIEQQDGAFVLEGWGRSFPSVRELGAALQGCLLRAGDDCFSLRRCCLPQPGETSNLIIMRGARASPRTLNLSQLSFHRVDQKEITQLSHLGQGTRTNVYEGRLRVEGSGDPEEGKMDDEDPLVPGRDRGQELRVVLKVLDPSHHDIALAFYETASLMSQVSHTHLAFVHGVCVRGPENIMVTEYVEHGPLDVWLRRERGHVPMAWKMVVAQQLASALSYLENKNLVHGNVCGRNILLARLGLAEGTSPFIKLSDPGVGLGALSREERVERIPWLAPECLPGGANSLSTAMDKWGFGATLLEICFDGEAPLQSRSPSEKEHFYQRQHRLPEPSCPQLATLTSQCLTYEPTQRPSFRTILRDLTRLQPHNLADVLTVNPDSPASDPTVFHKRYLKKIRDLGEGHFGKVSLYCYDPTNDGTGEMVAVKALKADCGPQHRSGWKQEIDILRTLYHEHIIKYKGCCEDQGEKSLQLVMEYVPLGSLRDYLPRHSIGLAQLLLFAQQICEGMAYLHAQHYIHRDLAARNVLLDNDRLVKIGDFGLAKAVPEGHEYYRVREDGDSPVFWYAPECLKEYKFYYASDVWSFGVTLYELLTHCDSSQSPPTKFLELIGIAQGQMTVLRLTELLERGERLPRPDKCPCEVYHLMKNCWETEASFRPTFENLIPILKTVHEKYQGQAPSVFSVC
# Description: as §1, §2
IC50 [1] [nM],Kd (JAK2) [nM],Kd (JAK3) [nM],Kd (TYK2) [nM],Compound
100 to 500,1 to 10,10 to 100,≤ 10,"Cc1cc(Nc2nc(C(F)(F)c3ccc(F)cc3)nc3ncsc23)n[nH]1 [Example 41, 5-(difluoro(4-fluorophenyl)methyl)-N-(5-methyl-1H-pyrazol-3-yl)thiazolo[4,5-d]pyrimidin-7-amine]"
100 to 500,1 to 10,≤ 10,≤ 10,"CNc1nc2nc(C(F)(F)c3ccc(F)cc3)nc(Nc3cc(C)[nH]n3)c2s1 [Example 42, 5-(difluoro(4-fluorophenyl)methyl)-N2-methyl-N7-(5-methyl-1H-pyrazol-3-yl)thiazolo[4,5-d]pyrimidine-2,7-diamine]"
100 to 500,> 10,> 100,10 to 100,"CCn1ncc2c(Nc3cc(C)[nH]n3)nc(Sc3ccc(F)cc3)nc21 [Example 43, 1-ethyl-6-((4-fluorophenyl)thio)-N-(5-methyl-1H-pyrazol-3-yl)-1H-pyrazolo[3,4-d]pyrimidin-4-amine]"
≤ 100,≤ 1,≤ 10,≤ 10,"Cc1cc(Nc2nc(C(F)(F)c3ccc(F)cn3)nc3nn(C4CCCC4)cc23)n[nH]1 [Example 44, 2-cyclopentyl-6-(difluoro(5-fluoropyridin-2-yl)methyl)-N-(5-methyl-1H-pyrazol-3-yl)-2H-pyrazolo[3,4-d]pyrimidin-4-amine]"

# Second part, the compound before the results:
Compound,IC50 [1] [nM],Kd (JAK2) [nM],Kd (JAK3) [nM],Kd (TYK2) [nM]
"Cc1cc(Nc2nc(C(F)(F)c3ccc(F)cn3)nc3c2cnn3C)n[nH]1 [Example 34, 6-(difluoro(5-fluoropyridin-2-yl)methyl)-1-methyl-N-(5-methyl-1H-pyrazol-3-yl)-1H-pyrazolo[3,4-d]pyrimidin-4-amine]",100 to 500,≤ 1,10 to 100,≤ 10
"CSc1nc2nc(C(F)(F)c3ccc(F)cc3)nc(Nc3cc(C)[nH]n3)c2s1 [Example 35, 5-(difluoro(4-fluorophenyl)methyl)-N-(5-methyl-1H-pyrazol-3-yl)-2-(methylthio)thiazolo[4,5-d]pyrimidin-7-amine]",100 to 500,1 to 10,10 to 100,≤ 10
"Cc1cc(Nc2nc(C(F)(F)c3ccc(F)cc3)nc3nc(N4CCCC4)sc23)n[nH]1 [Example 36, 5-(difluoro(4-fluorophenyl)methyl)-N-(5-methyl-1H-pyrazol-3-yl)-2-(pyrrolidin-1-yl)thiazolo[4,5-d]pyrimidin-7-amine]",100 to 500,≤ 1,10 to 100,≤ 10
"Cc1cc(Nc2nc(C(F)(F)c3ccc(F)cc3)nc3nc(N4CCOCC4)sc23)n[nH]1 [Example 37, 5-(difluoro(4-fluorophenyl)methyl)-N-(5-methyl-1H-pyrazol-3-yl)-2-morpholinothiazolo[4,5-d]pyrimidin-7-amine]",100 to 500,≤ 1,≤ 10,≤ 10
"Cc1cc(Nc2nc(C(F)(F)c3ccc(F)cc3)nc3nc(N4CCN(C)CC4)sc23)n[nH]1 [Example 38, 5-(difluoro(4-fluorophenyl)methyl)-N-(5-methyl-1H-pyrazol-3-yl)-2-(4-methylpiperazin-1-yl)thiazolo[4,5-d]pyrimidin-7-amine]",≤ 100,1 to 10,≤ 10,≤ 10
"COc1nc2nc(C(F)(F)c3ccc(F)cc3)nc(Nc3cc(C)[nH]n3)c2s1 [Example 39, 5-(difluoro(4-fluorophenyl)methyl)-2-methoxy-N-(5-methyl-1H-pyrazol-3-yl)thiazolo[4,5-d]pyrimidin-7-amine]",100 to 500,1 to 10,10 to 100,≤ 10
"Cc1cc(Nc2nc(C(F)(F)c3ccc(F)cc3)nc3nc(C#N)sc23)n[nH]1 [Example 40, 5-(difluoro(4-fluorophenyl)methyl)-7-(5-methyl-1H-pyrazol-3-ylamino)thiazolo[4,5-d]pyrimidine-2-carbonitrile]",> 500,1 to 10,10 to 100,≤ 10
